Experimental data taken from US8252543B2, “Method for detecting candidate alzheimer's disease drug” (Tomohiro Chiba, priority 2006, dated 2012).
Entries after “also recorded” stand apart in the source; their conditions may differ. Where no end group is shown, it is not given here.

B1: CNTF: ciliary neurotrophic factor (protein, UniProt P26441 1-200, looked up)
Ciliary neurotrophic factor: MAFTEHSPLTPHRRDLCSRSIWLARKIRSDLTALTESYVKHQGLNKNINLDSADGMPVASTDQWSELTEAERLQENLQAYRTFHVLLARLLEDQQVHFTPTEGDFHQAIHTLLLQVAAFAYQIEELMILLEYKIPRNEADGMPINVGDGGLFEKKLWGLKVLQELSQWTVRSIHDLRFISSHQTGIPARGSHYIANNKKM

What was measured:
STAT3 [1] = assay: Anti-phospho-STAT3 staining of hippocampus of Tg2576 and wild-type mice after Colivelin administration; type: in vivo; conditions: for STAT3 phosphorylation in Tg2576 hippocampus (anti-phospho-STAT3 staining): Tg2576 mice after 3 weeks nasal administration
Protocol: The brain sections of Tg2576 mice to which Colivelin had been administered were collected, paraffin-embedded samples were prepared therefrom, and then anti-phospho-STAT3 staining was performed. FIGS. 5A and 5B denote wild-type mice to which a vehicle had been administered; FIGS. 5C and 5D denote wild-type mice to which Colivelin had been administered; FIGS. 5E and 5F denote Tg2576 to which the vehicle had been administered; and FIGS. 5G and 5H denote the hippocampus of Tg2576 to which Colivelin had been administered.
Immunohistochemical analysis was performed as described in the document (Yamada M et al., Behav Brain Res (2005) 164: 139-146; Chiba T et al., J Neurosci (2005) 25: 10252-10261). Mice were transcardially perfused with phosphate buffered saline (PBS) and then perfused with 4% paraformaldehyde (PFA). Paraffine-embedded sections or fresh frozen sections, each having a thickness of 10 μm, were prepared. Immunohistochemical detection was performed with anti-phospho-STAT3 antibody (1:100 dilution). Staining images were visualized with the ABC method (Vectastain Elite Kit, Vector, Calif. U.S.A.) or Tyramide signal enhancer kit (Perkin-Elmer).
We confirmed STAT3 activation in the brains of mice to which Colivelin had been nasally administered twice every 24 hours (FIGS. 3A-D). […] We also confirmed STAT3 phosphorylation in an in vitro experiment using PC12 cells. […] To confirm the therapeutic effect of STAT3 activation, an experiment (nasal administration of Colivelin to mice) was conducted for Tg2576 mice, which had been tested by Y-maze test (YM) and confirmed to have memory disorder at 15 months of age (FIG. 4A, left panel). After 3 weeks of administration (administered every other day), their cognitive functions were analyzed by YM, water-finding task (WFT), and elevated-plus maze (EPM). […] We performed phospho-STAT3 immunostaining using the brains of these mice (FIG. 5). We observed significant loss of phospho-STAT3 immunoreactivity in the control Tg2576 mice to which the vehicle had been administered, compared with the wild-type mice.

STAT3 [2] = assay: STAT3 phosphorylation in mouse brain after transnasal Colivelin (anti-phospho-STAT3 immunohistochemistry); type: in vivo; conditions: mice, transnasal twice at 24 hours-intervals, brain collected 30 minutes after final administration, vs vehicle
Protocol: (§1) To examine the ability of Colivelin to phosphorylate STAT3 in vivo, a solvent (FIGS. 3A and 3C) or Colivelin (FIGS. 3B and 3D) was administered transnasally to mice twice at 24 hours-intervals. Brain samples were collected 30 minutes after the final administration, and then fresh frozen sections were prepared therefrom. The sections were then stained with an anti-phospho-STAT3 antibody. […] To examine the effect of Colivelin to phosphorylate STAT3 in vitro, PC12 cells were treated with a vehicle (MQ), CNTF, IL-6, Humanin (HN), D-Ser14-HN (D-14), and Colivelin (Col) for […] for stimulation. Phosphorylated STAT3 and total STAT3 were detected by an immunoblot method (FIG. 3E).
Immunohistochemical analysis was performed as described in the document (Yamada M et al., Behav Brain Res (2005) 164: 139-146; Chiba T et al., J Neurosci (2005) 25: 10252-10261). Mice were transcardially perfused with phosphate buffered saline (PBS) and then perfused with 4% paraformaldehyde (PFA). Paraffine-embedded sections or fresh frozen sections, each having a thickness of 10 μm, were prepared. […]
We confirmed STAT3 activation in the brains of mice to which Colivelin had been nasally administered twice every 24 hours (FIGS. 3A-D). […] After 3 weeks of administration (administered every other day), their cognitive functions were analyzed by YM, water-finding task (WFT), and elevated-plus maze (EPM). […]

Tg2576 mice [3] = assay: Elevated-plus maze (EPM) in Tg2576 mice; type: in vivo; conditions: nasal administration for 3 weeks (every other day)
Protocol: (§2) Tg2576 mice and wild-type control mice at 15 months of age were tested by Y-maze test (YM) (FIG. 4A, left). […] Mice were then subjected to nasal administration of Colivelin or a vehicle for 3 weeks. Subsequently, mice were again tested by Y-maze test. […] However, Colivelin administration seemed to ameliorate tendencies observed in Tg2576 to which the vehicle had been administered, such as delay in transfer latency, shortened 1 stay, and prolonged time spent in open arm (difficult to fear).
(§3) Y-maze test (YM) was performed as described in the document (Yamada M et al., Behav Brain Res (2005) 164: 139-146). The apparatus for YM is composed of three grey plastic arms (40 cm long, 12 cm high, 3 cm wide at the bottom, and 10 cm wide at the top). Mice were each allowed to explore the maze freely under observation for 8 minutes. Spontaneous alternation behavior % (SA %) is an indication of spatial working memory and is calculated using a ratio of the arm choices differing from the previous two choices to total choices during the run. […] The time between the onset of exploration and entering to the alcove (Entering latency), initiation of drinking from the water tube (Drinking latency), and the number of grid-line crossing during the test were measured Elevated-plus maze (EPM) was performed as described in the document (Kawasumi M et al., Eur J Neurosci (2004) 19: 2826-2838). […]

Tg2576 mice [4] = assay: Water-finding task (WFT) in Tg2576 mice; type: in vivo; conditions: nasal administration for 3 weeks (every other day)
Protocol: as §2, §3

Tg2576 mice [5] = assay: Y-maze test (YM) in Tg2576 mice; type: in vivo; conditions: Tg2576 mice 15 months of age, nasal administration for 3 weeks (every other day)
Protocol: as §2, §3

STAT3 [6] = conditions: reported in Hashimoto 2005, Chiba 2005; cited from earlier work
STAT3 [7] = assay: STAT3 phosphorylation in PC12 cells (immunoblot); type: cell-based; conditions: CNTF 50 ng/ml, IL-6 50 ng/ml, Colivelin 100 pM
Protocol: as §1
PC12 cells were cultured in DNEM (Wako) containing 10% serum (10%-DMEM). For phosphorylation analysis, PC12 cells (cultured at 1.6×10^5 cells/well in a 6-well plate containing serum-free DMEM for 24 hours) were stimulated with a ciliary neurotrophic factor (CNTF, 50 ng/ml), interleukin-6 (IL-6, 50 ng/ml), HN ([…], D-Ser14-HN (D-14, 10 μM, and Colivelin (100 pM) for 15 minutes. Cells were rinsed once with PBS and then lysed in a buffer solution containing phosphatase inhibitors (50 mM Tris HCl [pH7.4], 150 mM NaCl, 1% Triton-X 100, protease inhibitors, 1 mM EDTA, and phosphatase inhibitor cocktails 1 and 2 [Sigma]). Collected samples were separated by normal SDS-PAGE and were then electrically blotted onto PVDF membranes. Detection was performed using an anti-phospho-STAT3 (1:500 dilution) antibody and horseradish peroxidase (HRP)-labeled anti-rabbit IgG antibody (BioRad Laboratories, Hercules, Calif., U.S.A.). Immunoreactive bands were visualized using ECL Western Blotting Detection Reagents (Amersham Bioscience, Uppsala, Sweden). Immunoreactive bands corresponding to total-STAT3 antibody (1:3000 dilution) were subjected to detection on the identical membrane stripped and then determined to be controls.

Molecule | STAT3 phosphorylation in Tg2576 hippocampus (anti-phospho-STAT3 staining) (STAT3 [1]) | STAT3 phosphorylation in Tg2576 hippocampus (anti-phospho-STAT3 staining) (STAT3 [1]; listed as Coliverlin) | STAT3 phosphorylation levels in wild-type hippocampus (anti-phospho-STAT3 staining) (STAT3 [1]; wild-type mice after Colivelin administration) | STAT3 phosphorylation in cerebral cortex (anti-phospho-STAT3 staining) (STAT3 [2]) | STAT3 phosphorylation in hippocampus (anti-phospho-STAT3 staining) (STAT3 [2]) | EPM (transfer latency, 1st stay, time spent in open arms) (Tg2576 mice [3]) | WFT indices of memory including drinking latency, entering latency, and crossing (Tg2576 mice [4]) | Spontaneous alternation behavior % (SA %), spatial working memory (Tg2576 mice [5]) | In vitro STAT3 activation / suppression of cell death (STAT3 [6]) | STAT3 phosphorylation (phosphorylated STAT3 vs total STAT3, immunoblot) (STAT3 [7])
SALLRSIPAPAGASRLLLLTGEIDLP [Colivelin] | levels close to those in the case of wild-type mice to which the vehicle had been administered | recovery of phospho-STAT3 immunoreactivity | slightly increased | no significant changes were observed; also recorded: no significant differences were confirmed | Significant STAT3 phosphorylation was observed; also recorded: Hippocampus-predominant STAT3 phosphorylation | No significant differences were observed; also recorded: no significant changes were observed | significant amelioration was observed; also recorded: improvement in cognitive functions was confirmed | significantly improved; also recorded: improvement in cognitive functions was confirmed | activates in vitro STAT3 so as to suppress cell death | STAT3 had been phosphorylated; also recorded: STAT3 is phosphorylated
IL-6: interleukin-6 |  |  |  |  |  |  |  |  |  | STAT3 had been phosphorylated; also recorded: STAT3 is phosphorylated
B1 |  |  |  |  |  |  |  |  |  | STAT3 had been phosphorylated; also recorded: STAT3 is phosphorylated
